Measurements: patent US9708314B2, “Heterocyclic amide compound” (NISSAN CHEMICAL INDUSTRIES, LTD., priority 2013, dated 2017)

Key:
Assay type in all cases: in vivo
[1] = test system: Echinochloa oryzacola Vasing.; assay: Test Example 1: herbicidal activity, application before weed generation in submerged conditions; conditions: Application herbicide amount 320 g/ha; Seventeenth Table
In short: (§1)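 Pre-emergence water-surface application under 4 cm flooding, same day as sowing, with rice transplanted at 2.5 leaf stage. Dose given as g/ha. Plants grown at 25° C. to 30° C. and rated three weeks later on a 0 (≤5%) to 5 (≥90%) herbicidal-ratio scale.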

Monochoria vaginalis = assay: as above; conditions: Application herbicide amount 320 g/ha; Seventeenth Table
In short: as §1

Scirpus juncoides = assay: as above; conditions: Application herbicide amount 320 g/ha; Seventeenth Table
In short: as §1

[2] = test system: transplanted Oryza sativa; assay: Test Example 1: effect on crop, application before weed generation in submerged conditions; conditions: Application herbicide amount 320 g/ha; Seventeenth Table
In short: as §1

Glycine max = assay: Test Example 4: effect on crop by application to foliage (diluvial soil, plastic box); conditions: Application herbicide amount 320 g/ha; foliage application
In short: (§2)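 Seeds sown in sterilized diluvial soil, covered ~1.5 cm, grown 14 days in greenhouse at 25° C. to 30° C. Emulsion formulation diluted in water to set rate (g/ha) and sprayed onto stems and leaves. Effect scored visually 3 weeks later on 0–5 scale (5 = ≥90% herbicidal ratio, 0 = ≤5%).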

Brassica campestris L. = assay: as above; conditions: Application herbicide amount 320 g/ha; foliage application
In short: as §2

Triticum aestivum = assay: as above; conditions: Application herbicide amount 320 g/ha; foliage application
In short: as §2

[3] = test system: directly sowed Oryza sativa; assay: as above; conditions: Application herbicide amount 320 g/ha; foliage application
In short: as §2

Zea mays = assay: as above; conditions: Application herbicide amount 320 g/ha; foliage application
In short: as §2

[4] = test system: Beta vulgaris ssp. vulgaris; assay: as above; conditions: Application herbicide amount 320 g/ha; foliage application
In short: as §2

Abutilon theophrasti = assay: Test Example 4: herbicidal effect by application to foliage (diluvial soil, plastic box); conditions: Application herbicide amount 320 g/ha; foliage application
In short: as §2

Stellaria media = assay: as above; conditions: Application herbicide amount 320 g/ha; foliage application
In short: as §2

Digitaria ciliaris = assay: as above; conditions: Application herbicide amount 320 g/ha; foliage application
In short: as §2

Apera spica-venti. = assay: as above; conditions: Application herbicide amount 320 g/ha; foliage application
In short: as §2

Avena fatua = assay: as above; conditions: Application herbicide amount 320 g/ha; foliage application
In short: as §2

[5] = test system: Echinochloa crus-galli var. crus-galli; assay: as above; conditions: Application herbicide amount 320 g/ha; foliage application
In short: as §2

Chenopodium album = assay: as above; conditions: Application herbicide amount 320 g/ha; foliage application
In short: as §2

Amaranthus retroflexus = assay: as above; conditions: Application herbicide amount 320 g/ha; foliage application
In short: as §2

Veronica persica = assay: as above; conditions: Application herbicide amount 320 g/ha; foliage application
In short: as §2

Lolium multiflorum Lam. = assay: as above; conditions: Application herbicide amount 320 g/ha; foliage application
In short: as §2

Galium spurium = assay: as above; conditions: Application herbicide amount 320 g/ha; foliage application
In short: as §2

Alopecurus myosuroides = assay: as above; conditions: Application herbicide amount 320 g/ha; foliage application
In short: as §2

Setaria viridis = assay: as above; conditions: Application herbicide amount 320 g/ha; foliage application
In short: as §2

Compound	A: Echinochloa oryzicola Vasing. (herbicidal effect grade) [1]	C: Monochoria vaginalis (herbicidal effect grade) (Monochoria vaginalis)	B: Scirpus juncoides (herbicidal effect grade) (Scirpus juncoides)	a: transplanted Oryza sativa (effect on crop grade) [2]	d (Glycine max) effect on crop grade (Glycine max)	g (Brassica campestris L.) effect on crop grade (Brassica campestris L.)	e (Triticum aestivum) effect on crop grade (Triticum aestivum)	b (directly sowed Oryza sativa) effect on crop grade [3]	c (Zea mays) effect on crop grade (Zea mays)	f (Beta vulgaris ssp. vulgaris) effect on crop grade [4]	M (Abutilon theophrasti) herbicidal effect grade (Abutilon theophrasti)	P (Stellaria media) herbicidal effect grade (Stellaria media)	F (Digitaria ciliaris) herbicidal effect grade (Digitaria ciliaris)	L (Apera spica-venti.) herbicidal effect grade (Apera spica-venti.)	I (Avena fatua) herbicidal effect grade (Avena fatua)	H (Echinochloa crus-galli var. crus-galli) herbicidal effect grade [5]	O (Chenopodium album) herbicidal effect grade (Chenopodium album)	N (Amaranthus retroflexus) herbicidal effect grade (Amaranthus retroflexus)	R (Veronica persica) herbicidal effect grade (Veronica persica)	K (Lolium multiflorum Lam.) herbicidal effect grade (Lolium multiflorum Lam.)	further results
COCCOCc1nnc2c(C(=O)Nc3nnco3)ccc(C(F)(F)F)n12 [1-107]	5 (Herbicidal ratio of 90% or more (almost completely withered))	5 (Herbicidal ratio of 90% or more (almost completely withered))	4 (Herbicidal ratio of 70% or more and less than 90%)	2 (Herbicidal ratio of 20% or more and less than 40%)	5 (Herbicidal ratio of 90% or more (almost completely withered))	5 (Herbicidal ratio of 90% or more (almost completely withered))	3 (Herbicidal ratio of 40% or more and less than 70%)	4 (Herbicidal ratio of 70% or more and less than 90%)	1 (Herbicidal ratio of 5% or more and less than 20%)	5 (Herbicidal ratio of 90% or more (almost completely withered))	4 (Herbicidal ratio of 70% or more and less than 90%)	5 (Herbicidal ratio of 90% or more (almost completely withered))	5 (Herbicidal ratio of 90% or more (almost completely withered))	3 (Herbicidal ratio of 40% or more and less than 70%)	4 (Herbicidal ratio of 70% or more and less than 90%)	5 (Herbicidal ratio of 90% or more (almost completely withered))	5 (Herbicidal ratio of 90% or more (almost completely withered))	5 (Herbicidal ratio of 90% or more (almost completely withered))	5 (Herbicidal ratio of 90% or more (almost completely withered))	3 (Herbicidal ratio of 40% or more and less than 70%)	Q (Galium spurium) herbicidal effect grade (Galium spurium): 4 (Herbicidal ratio of 70% or more and less than 90%); J (Alopecurus myosuroides) herbicidal effect grade (Alopecurus myosuroides): 3 (Herbicidal ratio of 40% or more and less than 70%); G (Setaria viridis) herbicidal effect grade (Setaria viridis): 5 (Herbicidal ratio of 90% or more (almost completely withered))
CCCSc1nnc2c(C(=O)Nc3nnco3)ccc(C(F)(F)F)n12 [1-108]	5 (Herbicidal ratio of 90% or more (almost completely withered))	5 (Herbicidal ratio of 90% or more (almost completely withered))	5 (Herbicidal ratio of 90% or more (almost completely withered))	0 (Herbicidal ratio of 5% or less (almost no effect))	4 (Herbicidal ratio of 70% or more and less than 90%)	3 (Herbicidal ratio of 40% or more and less than 70%)	1 (Herbicidal ratio of 5% or more and less than 20%)	1 (Herbicidal ratio of 5% or more and less than 20%)	1 (Herbicidal ratio of 5% or more and less than 20%)	5 (Herbicidal ratio of 90% or more (almost completely withered))	4 (Herbicidal ratio of 70% or more and less than 90%)	5 (Herbicidal ratio of 90% or more (almost completely withered))	5 (Herbicidal ratio of 90% or more (almost completely withered))	2 (Herbicidal ratio of 20% or more and less than 40%)	2 (Herbicidal ratio of 20% or more and less than 40%)	5 (Herbicidal ratio of 90% or more (almost completely withered))	5 (Herbicidal ratio of 90% or more (almost completely withered))	5 (Herbicidal ratio of 90% or more (almost completely withered))	5 (Herbicidal ratio of 90% or more (almost completely withered))	2 (Herbicidal ratio of 20% or more and less than 40%)	Q (Galium spurium) herbicidal effect grade (Galium spurium): 3 (Herbicidal ratio of 40% or more and less than 70%); J (Alopecurus myosuroides) herbicidal effect grade (Alopecurus myosuroides): 1 (Herbicidal ratio of 5% or more and less than 20%); G (Setaria viridis) herbicidal effect grade (Setaria viridis): 5 (Herbicidal ratio of 90% or more (almost completely withered))
COCCNc1nnc2c(C(=O)Nc3nnc(C)o3)ccc(C(F)(F)F)n12 [1-109]	0 (Herbicidal ratio of 5% or less (almost no effect))	0 (Herbicidal ratio of 5% or less (almost no effect))	2 (Herbicidal ratio of 20% or more and less than 40%)	0 (Herbicidal ratio of 5% or less (almost no effect))	3 (Herbicidal ratio of 40% or more and less than 70%)	4 (Herbicidal ratio of 70% or more and less than 90%)	0 (Herbicidal ratio of 5% or less (almost no effect))	0 (Herbicidal ratio of 5% or less (almost no effect))	1 (Herbicidal ratio of 5% or more and less than 20%)	4 (Herbicidal ratio of 70% or more and less than 90%)	4 (Herbicidal ratio of 70% or more and less than 90%)	4 (Herbicidal ratio of 70% or more and less than 90%)	4 (Herbicidal ratio of 70% or more and less than 90%)	0 (Herbicidal ratio of 5% or less (almost no effect))	1 (Herbicidal ratio of 5% or more and less than 20%)	5 (Herbicidal ratio of 90% or more (almost completely withered))	5 (Herbicidal ratio of 90% or more (almost completely withered))	4 (Herbicidal ratio of 70% or more and less than 90%)	4 (Herbicidal ratio of 70% or more and less than 90%)	0 (Herbicidal ratio of 5% or less (almost no effect))	Q (Galium spurium) herbicidal effect grade (Galium spurium): 2 (Herbicidal ratio of 20% or more and less than 40%); J (Alopecurus myosuroides) herbicidal effect grade (Alopecurus myosuroides): 0 (Herbicidal ratio of 5% or less (almost no effect)); G (Setaria viridis) herbicidal effect grade (Setaria viridis): 3 (Herbicidal ratio of 40% or more and less than 70%)
